Laboratory results from patent US20090197906A1, “REVERSION OF MALIGNANT PHENOTYPE WITH 9-HYDROXY ELLIPTICINE DERIVATIVES” (priority 2006, published 2009).
pIC50: −log10 of the molar value. Read-outs that look alike come from different tables or passages of the source.

What was measured:
PANC-1 = assay: SRB (sulforhodamine B) cell proliferation assay; assay type: cell-based, human
Method: (§1) After an incubation period, cell monolayers are fixed with 10% (wt/vol) trichloroacetic acid and stained for 30 min, after which the excess dye is removed by washing repeatedly with 1% (vol/vol) acetic acid. The protein-bound dye is dissolved in 10 mM Tris base solution for optic density determination (OD) at 510 nm using a microplate reader.
(§2) The proliferation rates were calculated from the OD readings using the untreated cells as 100%.
(§3) The effects BA016FZ539 on the growth of MIA PaCa-2 and PANC-1 pancreatic cells were tested over a range of concentrations from 500 μM to 0.16 μM and measured by using the SRB calorimetric assay.
(§4) About 5000 MIA PaCa-2 or PANC-1 cells were seeded in a 96-well culture plate while adding increasing concentrations of BA016FZ539.
(§5) Growth studies were performed using both MTT and SRB calorimetric assay (Sigma). About 1500 B16F10 or 3000 pancreatic cells (MIA PaCa-2 and PANC1) were seeded in a 96-well culture plate before adding increasing concentrations of monomesylate or bimesylate.
(§6) The plates were incubated at 37° C. for 3 days and then were treated depending on SRB or MTT protocols (see material and methods).
(§7) In these two cases, the proliferation rates were calculated from the OD readings using the untreated cells as 100%.

Mia Paca-2 = assay: SRB (sulforhodamine B) cell proliferation assay; assay type: cell-based, human
Method: as §1, §2, §3, §4, §5, §6, §7

Structure (SMILES): CS(=O)(=O)[O-].Cc1c2cc[n+](CCN3CCCCC3)cc2c(C)c2c1[nH]c1ccc(O)cc12 [BA016FZ539, 2-(betapiperidino-2-ethyl)-9-hydroxyellipticinium methanesulfonate]
- pIC50 (PANC-1; PANC-1 (Example 11), read-out: IC50 (SRB Test-72 h)): 4.30
- IC50 (PANC-1; PANC-1, viability 72 h, mean +/− SEM (Example 9), read-out: IC50 (μM) SRB): 20.7 µM
- IC50 (Mia Paca-2; MIA PaCA-2, viability 72 h, mean +/− SEM (Example 9), read-out: IC50 (μM) SRB): 10.2 µM
- pIC50 (Mia Paca-2; Mia Paca-2 (Example 11), read-out: IC50 (SRB Test-72 h)): 5.25
